Experimental findings from patent US7264947B2, “Activity dependent neurotrophic factor III (ADNF III)” (United States of America, as represented by the Secretary …, priority 1997, dated 2007) are described below.

Test [1] relates to cerebral cortical cultures. The format is cell-based, newborn rats. To be noted: 1 μM tetrodotoxin, five days; P<0.01.
Test [2] has as its system cerebral cortical cultures. In words: neuroprotection against gp120 toxicity in cerebral cortical cultures. It counts as cell-based, newborn rats. To be noted: 1 pM gp120 (RFII isolate).
The subject of test [3] is cerebral cortical cultures. In words: protection from naturally occurring cell death in cerebral cortical cultures. It counts as cell-based, newborn rats. Conditions: FIG. 6C, no toxin added.
Test [4] can be described thus: structure-activity studies of ADNF III peptides (FIGS. 7A and 7B). It counts as cell-based.
Test [5] deals with AF64A-treated animals. The test can be described thus: water maze, learning and memory deficiencies associated with cholinergic blockade (AF64A). It counts as in vivo. Conditions: rats, cholinotoxin AF64A, peptide intranasally; listed as NAPVSIPQ
How it is done:
Protection against learning and memory deficiencies associated with cholinergic blockade was evaluated. Cholinergic blockade was obtained in rats by administration of the cholinotoxin AF64A, NAPVSIPQ (SEQ ID NO:6), which was administered intranasally and the water maze experiments were performed as before (Gozes et al., Proc. Natl. Acad. Sci. USA 93:427-432 (1996), the teachings of which are incorporated herein by reference).
The ability of ADNF III polypeptides to protect against learning and memory deficiencies associated with cholinergic blockade was also investigated. Cholinergic blockade was obtained in rats by administration of the cholinotoxin AF64A, NAPVSIPQ (SEQ ID NO:6) (termed NAP in FIG. 8). NAPVSIPQ (SEQ ID NO:6) was administered intranasally and the water maze experiments were performed as before (Gozes et al., Proc. Natl. Acad. Sci. USA 93:427-432 (1996)).

Test [6] relates to ADNF III mRNA. The test can be described thus: northern blot of ADNF III mRNA in brain of ApoE-deficient mice. The format is in vivo. Conditions: 28-day-old ApoE-deficient mice, daily injections for the first two weeks of life. How it is done: FIG. 9 illustrates northern blot identification of ADNF III mRNA. RNA was extracted from the brains of 28-day-old apolipoprotein E-deficient mice (E) treated with saline for the first two weeks of life or with NAP (E+N), control mice (C) were treated with saline. RNA was subjected to northern blot hybridization with a PCR-labeled ADNF III specific probe (α-^32P-dCTP, Amersham, 3000 Ci/mmol) (see FIG. 2) in comparison to an actin-specific probe (Gozes et al., Mol. Brain Res. 2:137-148 (1987)).
b. Hybridization: The blots were prehybridized for two hours at 55° C. and were hybridized with a specific complementary DNA probe for the mouse ADNF III cDNA (a PCR product obtained using the following primers: 61-79 and the complementary strand from position 438-455, which are described in detail below). The labeled probe was prepared by random priming and incubated with the blot for 16 hours at 55° C. Prehybridization and hybridization solutions (12 ml/blot) contained the following: 50% formamide (deionized using mixed bed resin, Sigma), 50 mM sodium phosphate buffer (pH 6.5), 0.8 M NaCl, 1 mM EDTA, 5× Denhart's reagent (0.05% BSA, 0.05% polyvinylpyrrolidone and 0.05% Ficoll), 0.1% SDS and […] poly(A). The labeled probe was dissolved in 12 ml of hybridization solution and added to the prehybridization mixture. […]

Several values for one entry are separate records, joined by “and”; a condition that tells them apart may be missing. Equal entries are not always repeated.

As for Asn-Ala-Pro-Val-Ser-Ile-Pro-Gln [NAP], the “concentrations of significant neuroprotection against tetrodotoxin” value in test [1] is 10^−18-10^−14 M. In addition, in test [2], the “concentrations of significant neuroprotection against gp120” value is 10^−15-10^−10 M. Further, the “protection from naturally occurring cell death” value in test [3] is given as “protected neurons”. The “relative activity in structure-activity studies” value in test [4] was “most active peptide”. In test [4] (two peaks, listed as NAPVSIPQ), the peak optimum concentrations is 10^−16-10^−14 M and 10^−11-10^−10 M. Further, in test [5], the “learning and memory in water maze” value is “showed improvement in their learning and memory capacities and behaved as control animals”. Besides, the “ADNP mRNA content” value in test [6] was “did not change”.
